Test results taken from patent US11639372B1, “Zinc-charged peptides for the treatment of cancer and alzheimer's disease” (priority 2021, dated 2023).
Numbered stars: 1 amine (or outer) side, 2 acyl side, 3 side chain; on linkers, the order of the positions; unused ones are H or OH. Bridge positions count the residues as written; N and C are the ends. Square brackets hold non-standard residues; d marks the D form. Ends that are not written are not given here. Peptide text beside a SMILES is read from it. I, II: the chains in the order shown. Actinocin(9to1) = Cc1c2oc3c(C)ccc(C(=O)[*:1])c3nc-2c(C(=O)[*:2])c(N)c1=O; NMeV = CN[C@H](C(=O)O)C(C)C; Sar = CNCC(=O)O

Columns and labels:
HT-29 colon cancer cells [1] = assay: apoptosis in HT-29 cells, combination with chemotherapy drugs; type: cell-based; conditions: for interaction of chemotherapy drug with the zinc-charged peptide: drug 6 μg per ml 12 hours, then zinc-charged 4H 4 μM for 6 hours
Experimental: To test this, HT-29 colon cancer cells were pre-incubated with various chemotherapy drugs at 6 μg per ml for 12 hours, then zinc-charged 4H at 4 μM was added for an additional 6 hours. Most chemotherapy drugs take up to 48 hours to see substantial apoptosis, and as such, the cells were pre-incubated with chemotherapy drugs first. The chemotherapy drugs tested included actinomycin (“A”), carmustine (“C”), docorubicin (“Dox”), genistin (“G”), 5-FU, and Tarceva.

[2] = water solubility of the peptides; type: physicochemical; conditions: uncharged peptide, last amino acid changed
[3] = absorption by gastrointestinal tract (earlier work); type: in vivo; conditions: before enzymatic digestion with papain
[4] = test system: various cancer cell lines; assay: apoptosis-inducing activity on cancer cell lines (earlier work); type: cell-based; conditions: in vitro cell culture
Excerpt: Cow milk is known to contain numerous proteins and other beneficial compounds for humans.
Since alpha-lactalbumin is the major milk protein present in milk, this protein was first tested to determine if the bioactive peptides were derived from alpha-Lactalbumin. Purified alpha-lactalbumin was therefore treated with EDTA and zinc acetate.

HT-29 cancer cells = assay: biochemical analysis of HT-29 cell lysate (lactate, ATP, G-6-P); type: cell-based
Experimental: To determine the mechanism of induction of apoptosis to HT-29 cancer cells by the zinc-charged peptides, a low concentration (1 μM) of zinc-charged 4H was incubated with HT-29 cancer cells, followed by biochemical analysis of the cell lysate of the HT-29 cancer cells.
Furthermore, the decreased lactate was associated with a lower ATP level and a lower Glucose-6-phosphate (G-6-P) level in HT-29 cells.

HT-29 colon cancer cells [5] = assay: glycolysis (lactate) inhibition in cell lysate, HT-29; type: cell-based
normal WI38 lung cells = assay: glycolysis (lactate) inhibition in cell lysate, WI38; type: cell-based
Experimental: (§1) The zinc-charged peptides ability to inhibit glycolysis in other cancer cell lines, such as lung cancer, compared to their normal counterparts was also tested.

[6] = test system: normal colon cell line CCD18Co; assay: glycolysis (lactate) inhibition in cell lysate, CCD18Co; type: cell-based
Calu-1 lung cancer cells = assay: glycolysis (lactate) inhibition in cell lysate, Calu-1; type: cell-based
Experimental: as §1

[7] = glycolysis and ATP in brain and muscle of normal mice fed zinc-charged 4H; type: in vivo; conditions: 0.5 mg per mouse per day, 5 days, oral
Experimental: To further study this observed phenomena in vivo, normal mice were fed with the zinc-charged 4H for five days, and the glycolysis of normal brain cells were studied. FIG. 9 depicts the results of this study. For this study, two groups of mice having four mice per group were compared, one being the control and the other being fed 0.5 mg of zinc-charged 4H per mouse per day for 5 days orally. After 5 days, brain and muscle tissue was collected, homogenized, and assayed for glycolysis rate.
In mice fed with 0.5 mg of zinc-charged 4H for 5 days, the brain glycolysis of these mice was enhanced by 44%.

hexokinase II [8] = target: T1, hexokinase II (Homo sapiens, UniProt P52789); assay: subcellular hexokinase II activity in HT-29 cells; type: cell-based; conditions: HT-29, 1 μM, 5 hours
T1 sequence (P52789 1-917): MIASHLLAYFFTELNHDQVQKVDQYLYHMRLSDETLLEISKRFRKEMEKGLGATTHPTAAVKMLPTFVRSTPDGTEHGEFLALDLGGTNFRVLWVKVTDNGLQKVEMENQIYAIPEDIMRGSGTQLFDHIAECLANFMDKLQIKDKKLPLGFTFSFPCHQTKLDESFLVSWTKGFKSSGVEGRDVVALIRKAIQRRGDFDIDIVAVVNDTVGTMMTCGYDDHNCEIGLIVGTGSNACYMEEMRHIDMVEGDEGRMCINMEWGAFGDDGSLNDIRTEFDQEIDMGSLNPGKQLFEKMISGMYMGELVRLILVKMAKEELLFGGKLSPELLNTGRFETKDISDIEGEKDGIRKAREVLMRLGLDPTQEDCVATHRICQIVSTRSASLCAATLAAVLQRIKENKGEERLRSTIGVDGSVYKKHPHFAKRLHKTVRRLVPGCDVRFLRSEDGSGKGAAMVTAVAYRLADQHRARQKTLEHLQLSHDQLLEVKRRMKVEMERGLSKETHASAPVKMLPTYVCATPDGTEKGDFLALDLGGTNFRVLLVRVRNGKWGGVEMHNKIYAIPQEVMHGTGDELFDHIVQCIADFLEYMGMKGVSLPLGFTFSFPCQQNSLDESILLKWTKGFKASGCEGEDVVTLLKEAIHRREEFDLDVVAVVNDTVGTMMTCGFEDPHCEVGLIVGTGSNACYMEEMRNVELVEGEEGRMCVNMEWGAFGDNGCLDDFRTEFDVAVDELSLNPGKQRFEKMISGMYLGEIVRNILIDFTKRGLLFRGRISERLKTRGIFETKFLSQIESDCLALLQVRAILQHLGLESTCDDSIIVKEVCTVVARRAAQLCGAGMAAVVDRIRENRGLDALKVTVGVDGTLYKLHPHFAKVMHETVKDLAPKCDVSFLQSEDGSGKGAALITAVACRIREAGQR
Experimental: FIGS. 14-16 depicts the testing results validating that the zinc-charged peptides inhibit each of these three bioenergetic pathways. FIG. 14 depicts the subcellular hexokinase II activity in mitochondria, cytosol, and microsome to determine whether the zinc-charged peptides inhibit the hexokinase II activity in mitochondria. For this test, HT-29 cancer cells were incubated with zinc-charged 4H at 1 μM for 5 hours. After incubation, sub-cellular fractions including cytosol, microsome, and mitochondria were prepared and the hexokinase II activity on these sub-cellular fractions were tested.

hexokinase II [9] = target: T1, hexokinase II; assay: in vitro hexokinase II assay; type: biochemical
Experimental: To test confirm that the zinc-charged peptides inhibit hexokinase II resulting in the inhibition of glycolysis, an in vitro hexokinase II assay was performed. FIG. 7 depicts the results of the in vitro hexokinase II assay. In this test, it was observed that hexokinase II was inhibited by zinc-charged 4H in a dose-dependent manner. […] These findings confirm that the zinc-charged peptides inhibit glycolysis at the hexokinase II enzyme level.

Q: Which “interaction of chemotherapy drug with the zinc-charged peptide” value (“interaction of chemotherapy drug” below) (HT-29 colon cancer cells [1]) does the source give for `O=c1[nH]cc(F)c(=O)[nH]1` [5-FU] here?
A: Its value is “synergistic”.

Q: With `Cc1c2oc3c(C)ccc(C(=O)N[C@@H]4C(=O)N[C@H](C(C)C)C(=O)N5CCC[C@H]5C(=O)N(C)CC(=O)N(C)[C@@H](C(C)C)C(=O)O[C@@H]4C)c3nc-2c(C(=O)N[C@@H]2C(=O)N[C@H](C(C)C)C(=O)N3CCC[C@H]3C(=O)N(C)CC(=O)N(C)[C@@H](C(C)C)C(=O)O[C@@H]2C)c(N)c1=O` [actinomycin] (I: T[dV]P[Sar][NMeV] / II: T[dV]P[Sar][NMeV]; ester I:1-I:C, II:1-II:C; linker I:N-II:N via Actinocin(9to1)) as the molecule, how does the “interaction of chemotherapy drug” value (HT-29 colon cancer cells [1]) read?
A: The value was “synergistic”.

Q: With `O=NN(CCCl)C(=O)NCCCl` [carmustine] as the molecule, how does the “interaction of chemotherapy drug” value (HT-29 colon cancer cells [1]) read?
A: The value was “synergistic”.

Q: Which “interaction of chemotherapy drug” value (HT-29 colon cancer cells [1]) does the source give for `COc1cccc2c1C(=O)c1c(O)c3c(c(O)c1C2=O)C[C@@](O)(C(=O)CO)C[C@@H]3O[C@H]1C[C@H](N)[C@H](O)[C@H](C)O1` [doxorubicin] here?
A: The value was “synergistic”.

Q: With `O=c1c(-c2ccc(O)cc2)coc2cc(O[C@@H]3O[C@H](CO)[C@@H](O)[C@H](O)[C@H]3O)cc(O)c12` [genistin] as the molecule, how does the “interaction of chemotherapy drug” value (HT-29 colon cancer cells [1]) read?
A: Its value is “synergistic”.

Q: For “EYGLFQISNKK [4H3, E-Y-G-L-F-Q-I-S-N-K-K]”, which “water solubility compared with 4H” value [2] is on record?
A: Its value is “more water-soluble”.

Q: Which “absorption by gastrointestinal tract” value [3] does the source give for “zinc-bound alpha-lactalbumin: purified alpha-lactalbumin treated with EDTA and zinc acetate” here?
A: The value was “unable to be absorbed”.

Q: What about the “apoptosis-inducing activity on various cancer cell lines” value [4] of the same molecule?
A: Its value is “contain apoptosis-inducing activity”.

Q: With “zinc-charged 4H: peptide E-Y-G-L-F-Q-I-S-N-K-L (SEQ. ID NO. 1) charged with zinc ions by EDTA then zinc acetate treatment (EYGLFQISNKL; also: charged with zinc ions)” as the molecule, how does the “lactate lower than control cells” value (HT-29 cancer cells; 1 μM, HT-29 cell lysate) read?
A: The value was 81.4%.

Q: What about the “reduction of intracellular G-6-P level” value (HT-29 cancer cells; HT-29, after 6 hours of incubation) of the same molecule?
A: The value was 39.6%.

Q: What about the inhibition of glycolysis (HT-29 colon cancer cells [5]) of the same molecule?
A: The inhibition of glycolysis was “up to 34.7%”.

Q: And the inhibition of glycolysis (normal WI38 lung cells)?
A: The inhibition of glycolysis was 0%.

Q: And the inhibition of glycolysis [6]?
A: The inhibition of glycolysis was 10.5%.

Q: What about the inhibition of glycolysis (Calu-1 lung cancer cells) of the same molecule?
A: Its inhibition of glycolysis is 11.1%.

Q: What about the “enhancement of brain glycolysis” value [7] of the same molecule?
A: The value was 44%.

Q: What about the “increase in brain ATP level” value [7] of the same molecule?
A: Its value is 31.4%.

Q: What about the “increase of muscle glycolysis” value [7] of the same molecule?
A: The value was 15%.

Q: And the “inhibition of mitochondria associated hexokinase II activity” value (hexokinase II [8])?
A: Its value is 53%.

Q: What about the “percentage of apoptosis in HT-29 cells when added to chemotherapy drugs” value (HT-29 colon cancer cells [1]; zinc-charged 4H 4 μM, 6 hours after 12 hours drug pre-incubation) of the same molecule?
A: Its value is “significantly increased”.

Q: And the “hexokinase II inhibition” value (hexokinase II [9]; 5 μM)?
A: Its value is 28.6%.

Q: What about the “hexokinase II inhibition” value (hexokinase II [9]; 10 μM) of the same molecule?
A: The value was 79.1%.

Q: What about the “hexokinase II inhibition” value (hexokinase II [9]; 20 μM) of the same molecule?
A: The value was 94.6%.
